We go through 28 compounds from PubChem BioAssay (NCI).

What all share (assay): DTP human tumour cell line panel, 48 h
The test system of test [1] is T-47D breast.
The subject of test [2] is MDA-N.
Test [3] relates to NCI/ADR-RES ovarian.
For test [4], the system named is DMS 114 small cell lung.
Test [5] deals with DMS 273 small cell lung.
Test [6] concerns M19-MEL melanoma.
Test [7] relates to XF 498 CNS.
Test [8] has as its system DLD-1 colon.

For orientation: GI50 means the concentration giving 50% growth inhibition. For orientation: TGI means the concentration at which net growth stops. Read a low TGI as greater sensitivity of the cells.

Where “and” joins values, the source holds several entries; their conditions need not be identical. Equal values may be shown once.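 Five compound concentrations were applied to cells in 96-well plates for 48 hours; endpoints were derived by simple linear interpolation of the resulting dose-response curve. The concentration for 50% growth inhibition is given as GI50. TGI: concentration producing complete growth inhibition.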

In the case of `C[n+]1cc2c3c(ccc2c2ccc4cc5c(cc4c21)OCO5)OCO3`, in test [1], the GI50 was 1.42 µM and the TGI came to 3.13 µM.

As for `Clc1ccccc1NN(Cc1ccccn1)c1ccccc1Cl`, the TGI in test [2] is 36 µM; in test [3] it was 47.7 µM; in test [1], over 100 µM.

Turning to `COc1cc2cc(Oc3ccc(NC(=O)c4cccc(C(F)(F)F)c4)cc3)c(C)nc2cc1OC`, in test [3], the GI50 is 4.02 µM and the total growth inhibition concentration (TGI) was over 100 µM. Further, in test [1], the GI50 was 3.23 µM and the concentration for total growth inhibition (TGI) was over 100 µM.

Take `C[C@]12CC[C@@H]3c4ccc(O)c([N+](=O)[O-])c4CC[C@H]3[C@@H]1CC[C@@H]2NS(=O)(=O)c1ccc(C(F)(F)F)cc1`: in test [3], the GI50 was 1.95 µM and the TGI came to 4.7 µM. Besides, in test [1], the GI50 was 2.45 µM and the TGI was 7.22 µM.

`Nc1cc2c3c(cccc3c1)NC2=O`: the total growth inhibition concentration (TGI) in test [2], in test [3] and in test [1] was over 100 µM throughout.

Take `CCc1nc(N)nc(N)c1-c1ccc([N+](=O)[O-])c(NCc2ccccc2)c1`: the total growth inhibition concentration (TGI) in test [2] is 34.8 µM; in test [3], 38.2 µM; in test [1], over 46.8 µM.

Consider `COc1ccc(OC)c(-c2cc(-c3ccccc3)nn2-c2ccc(S(=O)(=O)NC(C)=O)cc2)c1`, for which, in test [3], the GI50 was 3.38 µM and the concentration for total growth inhibition (TGI) was 11.5 µM.

In the case of `CS(=O)(=O)c1ccc(Cl)c([N+](=O)[O-])c1`, the GI50 in test [3] was 20.8 µM; in test [1], 13.5 µM. In addition, the TGI in test [3] worked out at 46.9 µM; in test [1], 35.1 µM.

`COc1ccc2nc(-c3ccccc3)cc(Nc3cccc(/C(C)=N\O)c3)c2c1`: the GI50 in test [3] was 6.35 µM; in test [1], 4.01 µM. For the same compound, the concentration for total growth inhibition (TGI) in test [3] and in test [1] was over 100 µM throughout.

For the compound `CC(CO)[C@H]1OC(=O)C=C2[C@@]13O[C@@H]3[C@H]1OC(=O)[C@@]3(C)[C@H]4O[C@H]4C[C@@]2(C)[C@@H]13` (stereo not given in full), the TGI was 14 µM in test [2] and over 46.1 µM in test [1].

In the case of `Fc1cccc(COc2ccc(Nc3ncnc4sc(-c5ccco5)cc34)cc2Cl)c1`, in test [3], the GI50 is over 25 µM and the total growth inhibition concentration (TGI) is over 25 µM. Also, in test [1], the GI50 was over 14.5 µM and the concentration for total growth inhibition (TGI) was over 25 µM.

As to `N/C(=N\OC(=O)c1ccccc1)C(C(=O)NOC(=O)c1ccccc1)C1CCCCC1` (stereo not given), in test [3], the GI50 was 3.79 µM and the TGI is 16 µM. Also, in test [1], the GI50 is 7.57 µM and the concentration for total growth inhibition (TGI) is 28.2 µM.

In the case of `O=C(c1ccccc1)c1c(CC(O)c2cccnc2)n(C(=O)c2ccccc2)c2ccccc12` (stereo not given), the TGI in test [4] came to 74.2 µM; in test [5], 56.2 µM; in test [6] it was 38.3 µM; in test [7], 27.1 µM.

For `O=C(O)c1cc[c]([Hg][S]c2ncnc3nc[nH]c23)cc1`, the GI50 in test [2] is 4.84 µM; in test [3], 3.75 µM; in test [1], 4.52 µM. In addition, the figures for the TGI in test [2], in test [3] and in test [1] were 20.3 µM, 30.6 µM and 36.7 µM, respectively.

As to `CN1CCCN(CCNc2nccc(-c3c(-c4cccc(O)c4)nc4sccn34)n2)S1(=O)=O`, in test [3], the GI50 is 22.5 µM and 31.1 µM; the concentration for total growth inhibition (TGI) was 75 µM and > 100 µM. In test [1], the GI50 is 14.2 µM and 11.8 µM; the concentration for total growth inhibition (TGI) is 57.1 µM and > 88.7 µM.

Turning to `CC1(C)CCC(C)(C)c2cc(C(=O)Nc3ccc(C(=O)O)cc3)ccc21`, the total growth inhibition concentration (TGI) was over 62.8 µM in test [2], 47.3 µM in test [3] and over 79.4 µM in test [1].

Take `Cc1cc2c(C(C)C)c(O)c(O)c(C=Nc3cc(C(F)(F)F)ccc3Cl)c2c(O)c1-c1c(C)cc2c(C(C)C)c(O)c(O)c(C=Nc3cc(C(F)(F)F)ccc3Cl)c2c1O`: the total growth inhibition concentration (TGI) in test [3] and in test [1] was over 100 µM in each case.

On to `COc1cc(-c2csc(NC(=O)c3cc(C(F)(F)F)cc(C(F)(F)F)c3)n2)cc(OC)c1OC`, for which, in test [1], the GI50 is 1.84 µM and the TGI was determined as 6.29 µM.

Turning to `COc1cc(/C=C2\CN(C)CC3=C2Nc2nc(SC)[nH]c(=O)c2C3c2cc(OC)c(OC)c(OC)c2)cc(OC)c1OC` (stereo not given), in test [3], the GI50 is 3.6 µM and the TGI is over 100 µM. Moreover, in test [1], the GI50 is 3.69 µM and the concentration for total growth inhibition (TGI) turned out to be 22.6 µM.

As to `COc1ccc(-c2cc(-c3ccc(Cl)cc3)c(C#N)c(=O)n2CCCCC(=O)Nc2ccccc2N)cc1`, in test [3], the GI50 was 4.09 µM and the concentration for total growth inhibition (TGI) was over 100 µM. Moreover, in test [1], the GI50 was 4.44 µM and the TGI is over 100 µM.

As to `CC(C)c1ccc2nc3ccc(C(=O)NCCN(C)C)cn3c(=O)c2c1`, the concentration for total growth inhibition (TGI) amounted to 31.8 µM in test [2], 62.9 µM in test [3] and 38.4 µM in test [1].

As for `Nc1c(C(=O)Nc2ccc([As](=O)(O)O)cc2)cnc2nnnn12`, the TGI in test [2], in test [3] and in test [1] was over 100 µM in each case.

With `CN1C2CC(C#N)C1C=CC2=O` (stereo not given), the GI50 is 19.2 µM and 63.3 µM in test [2]; 25.7 µM and > 100 µM in test [3]; 17.5 µM and > 100 µM in test [1]. Further, the concentration for total growth inhibition (TGI) is 43.1 µM and > 100 µM in test [2]; 82.9 µM and > 100 µM in test [3]; 45.1 µM and > 100 µM in test [1].

As to `CC(C)N(C(=O)C12C3C4C1C1C2C3C41C(O)C(C)(C)C)C(C)C` (stereo not given), the TGI in test [4], in test [5], in test [6] and in test [7] was over 50 µM throughout.

`COc1ccc(-n2nnc3c(sc4ccccc43)c2=O)cc1`: in test [3], the GI50 is over 100 µM and the total growth inhibition concentration (TGI) is over 100 µM.

Consider `Cc1ccc(C(=O)/C(=C/c2ccc([N+](=O)[O-])cc2)S(=O)Cc2ccccc2)cc1` (stereo not given), for which, in test [3], the GI50 is 2.46 µM and the total growth inhibition concentration (TGI) was over 100 µM.

Regarding `Cc1nc2c(n1CC(C)(C)C)C(=O)c1ccccc1C2=O`, the TGI in test [8], in test [5] and in test [7] was over 100 µM each time.

For `CC(C)c1cccc(C(C)C)c1NC(=O)C(=O)C(C(=O)c1ccccc1-c1ccccc1)C1OC(=O)c2ccccc21` (stereo not given), the TGI stood at 49.2 µM in test [4], 60 µM in test [5], 63.6 µM in test [6] and 26 µM in test [7].
